Measured values: patent US20220304349A1, “Steviol Glycoside Compositions for Oral Ingestion or Use” (CARGILL, Incorporated, priority 2016, published 2022)
Blank lines part the entries; values can stand above or below the compound they belong to.

Legend:
[1] = Instantaneous solubility: vigorous mixing with deionized water for 10 minutes at room temperature; format: physicochemical; parameters: key to instantaneous solubility at stated concentration: Clear solutions without precipitates are considered soluble; details: for improvement (increase) in instantaneous solubility over the pure rebaudioside: in the presence of compounds SG101-104 (fermentation derived composition); for concentration of the rebaudioside in the instantaneously soluble 0.37% solution of the fermentation composition: room temperature water; for instantaneous solubility: water, room temperature
Method: The composition can optionally be expressed in terms of the concentration of one or more steviol glycoside(s). […] Clear solutions without precipitates are considered soluble. Unless indicated otherwise herein, the term “solubility” refers to “equilibrium solubility.”
Instantaneous solubility is determined by mixing steviol glycoisde with deionized water vigorously for 10 minutes at room temperature. […] Clear solutions without precipitates are considered soluble.

[2] = Equilibrium solubility: heating in deionized water at 80° C. for 15 minutes, cooling to room temperature, observation up to 4 days; format: physicochemical; parameters: key to equilibrium solubility at stated concentration: Clear solutions without precipitates are considered soluble; details: for equilibrium solubility: after 80° C. for 15 minutes, at room temperature, up to 4 days
From the text: The composition can optionally be expressed in terms of the concentration of one or more steviol glycoside(s). […] Clear solutions without precipitates are considered soluble. Unless indicated otherwise herein, the term “solubility” refers to “equilibrium solubility.” […]

[3] = biological target: T1, UGT 76G1 and EUGT11 (Stevia rebaudiana, UniProt Q6VAB4); assay: Bioconversion of steviol glycosides with crude UGT enzyme preparations expressed in E. coli, LC-UV analysis; format: biochemical; details: UGT clone 76G1; 2 mM substrate fed, overnight at 30° C.
T1 construct: made in house; host or cells: E. coli XjB-autolysis BL21(DE3), pET30 vector, crude lysate
T1 sequence (Q6VAB4 1-458): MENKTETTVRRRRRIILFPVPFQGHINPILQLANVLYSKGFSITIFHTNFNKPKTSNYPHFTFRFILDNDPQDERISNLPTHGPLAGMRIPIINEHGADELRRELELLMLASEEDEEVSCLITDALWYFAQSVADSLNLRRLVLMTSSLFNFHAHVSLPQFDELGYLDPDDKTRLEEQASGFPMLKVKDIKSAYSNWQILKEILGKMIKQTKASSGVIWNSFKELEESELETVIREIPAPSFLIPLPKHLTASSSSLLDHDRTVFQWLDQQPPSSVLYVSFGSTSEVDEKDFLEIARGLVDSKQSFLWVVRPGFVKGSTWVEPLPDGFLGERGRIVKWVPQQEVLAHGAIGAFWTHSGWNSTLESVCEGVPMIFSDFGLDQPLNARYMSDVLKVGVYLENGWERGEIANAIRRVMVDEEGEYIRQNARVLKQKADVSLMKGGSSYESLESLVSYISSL
Method: The wildtype genes for UGTs EUGT11 and 76G1 are cloned individually into E. coli XjB-autolysis BL21(DE3) cells using the pET30 vector system from Novagen (EMD4 Biosciences, Madison, Wis.). All vectors use an IPTG-inducible promoter. Plasmid DNA is transformed into chemically competent cells as described by the vendor.
For in vitro assays, transformants displaying the desired antibiotic resistance are grown overnight at 30° C. in 2 mL cultures using NZCYM-media and antibiotic. The following day, the cultures are induced to a final concentration of 0.3 mM IPTG and 3 mM arabinose, and grown for 24 h at 20° C. The cells are then harvested by centrifugation at 4000 rpm for […] and resuspended in 200 μL GT-buffer (RBC Bioscience) and 3 tablets/100 ml of Complete mini, protease inhibitor (Roche), transferred to Eppendorf tubes, vortexed and frozen at −80° C. for 1.5 hour. Cells are thawed on ice, and left at room temperature for 3 minutes. When approximately half-way thawed, 15 μl of 0.14 mg/ml H2O DNase solution+30 μl 0.05M MgCl2 is added to each tube and the samples are incubated for approximately 5 minutes at room temperature. The cells are centrifuged at maximum speed for 5 minutes. One-hundred μL of supernatant (lysate) is transferred to fresh microfuge tubes, and 100 μL of glycerol is added. […]

[4] = in vivo; cited from earlier work
[5] = cited from earlier work
[6] = Sensory evaluation by two to three experienced tasters, solutions in reverse osmosis water (Example 5, Tests A and B); format: in vivo, human
Method: (§1) Glycoside samples (SG101-104) were isolated and purified from fermentation broth, purified Rebs A, B, and D are of leaf origin and Reb M is chemically synthesized. All samples were dissolved in reverse osmosis water at the concentrations indicated. Unsweetened black tea was used in one set of experiments. Approximately 2-3 milliliters of each solution was tasted and sensory evaluations conducted by two to three experienced tasters. Test A
As used herein, “sucrosey” means having a flavor profile, a sweetness profile, or a flavor profile and a sweetness pofile more similar to that of sucrose.

[7] = Sensory evaluation by experienced tasters in unsweetened black tea (Example 5, Test A); format: in vivo, human; details: about 200 ppm in tea
Method: as §1

[8] = Sweetness time intensity (TI) profile in water, SG composition Lot B versus RebM; format: in vivo, human; details: sweetness TI in water vs RebM
Method: Comparison of SG composition Lot B and RebM using TI for sweet.
Training: Descriptive panelists, who are highly trained and experienced on-call taste panelists, had four training sessions. They trained with sucrose references. Then they practiced scoring the samples using the scale on the ballot using a time intensity scale.
Testing: There was at least a 10 minute break in between samples. They were provided with filtered water, sparkling water, carrots, unsalted rice crackers and unsalted saltine crackers during break only. All samples were evaluated in a balanced sequential order one at a time. Panelists swallowed the sample at 10 seconds.
Serving Size/Container: 15 g in a 2 oz cup Serving Temp Room temperature
Sweetness Results (12 panelists; 3 replicates)

Compound: C=C1C[C@@]23CC[C@H]4[C@@](C)(CCC[C@@]4(C)C(=O)O[C@@H]4O[C@H](CO)[C@@H](O)[C@H](O)[C@H]4O[C@@H]4O[C@H](CO)[C@@H](O)[C@H](O)[C@H]4O)[C@@H]2CC[C@]1(O[C@@H]1O[C@H](CO)[C@@H](O)[C@H](O[C@@H]2O[C@H](CO)[C@@H](O)[C@H](O)[C@H]2O)[C@H]1O[C@@H]1O[C@H](CO)[C@@H](O)[C@H](O)[C@H]1O)C3 [Reb D, rebaudioside D]
instantaneous solubility at stated concentration ([1]; 0.08%): insoluble
instantaneous solubility at stated concentration ([1]; 0.10%): insoluble
instantaneous solubility at stated concentration ([1]; 0.15%): insoluble
instantaneous solubility at stated concentration ([1]; 0.20%): insoluble
improvement (increase) in instantaneous solubility over the pure rebaudioside [1]: 75%
concentration of the rebaudioside in the instantaneously soluble 0.37% solution of the fermentation composition [1]: 0.14%
concentration of the rebaudioside in the instantaneously soluble 0.37% solution of the fermentation composition ([1]; listed as reb D): about 0.14%
instantaneous solubility [1]: < 0.08%
instantaneous solubility ([1]; listed as rebaudioside D): less than 0.08%
equilibrium solubility at stated concentration ([2]; 0.08%): soluble
equilibrium solubility at stated concentration ([2]; 0.10%): insoluble
equilibrium solubility at stated concentration ([2]; 0.15%): insoluble
equilibrium solubility at stated concentration ([2]; 0.20%): insoluble
equilibrium solubility [2]: 0.08%
Products [3]: Rebaudioside M, various
sweetness characteristics [4]: slow onset of sweetness and was very clean
times sweeter than sucrose (sugar) [4]: 200-220 times
amount that can be solubilized in water ([5]; 23° C.): 300 to 450 ppm
aqueous solubility in words [5]: low solubility in water at room temperature

instantaneous solubility at stated concentration ([1]; 0.10%): soluble
instantaneous solubility at stated concentration ([1]; 0.13%): soluble
instantaneous solubility at stated concentration ([1]; 0.20%): insoluble
instantaneous solubility at stated concentration ([1]; 0.30%): insoluble
improvement (increase) in instantaneous solubility over the pure rebaudioside [1]: > 60%
concentration of the rebaudioside in the instantaneously soluble 0.37% solution of the fermentation composition [1]: 0.21%
concentration of the rebaudioside in the instantaneously soluble 0.37% solution of the fermentation composition ([1]; listed as reb M): about 0.21%
instantaneous solubility [1]: at least 0.13%
instantaneous solubility ([1]; listed as rebaudioside M): about 0.13%
equilibrium solubility at stated concentration ([2]; 0.10%): soluble
equilibrium solubility at stated concentration ([2]; 0.13%): soluble
equilibrium solubility at stated concentration ([2]; 0.20%): soluble
equilibrium solubility at stated concentration ([2]; 0.30%): insoluble
equilibrium solubility [2]: at least 0.2%
equilibrium solubility ([2]; listed as rebaudioside M): about 0.2%
Compound: C=C1C[C@@]23CC[C@H]4[C@@](C)(CCC[C@@]4(C)C(=O)O[C@@H]4O[C@H](CO)[C@@H](O)[C@H](O[C@@H]5O[C@H](CO)[C@@H](O)[C@H](O)[C@H]5O)[C@H]4O[C@@H]4O[C@H](CO)[C@@H](O)[C@H](O)[C@H]4O)[C@@H]2CC[C@]1(O[C@@H]1O[C@H](CO)[C@@H](O)[C@H](O[C@@H]2O[C@H](CO)[C@@H](O)[C@H](O)[C@H]2O)[C@H]1O[C@@H]1O[C@H](CO)[C@@H](O)[C@H](O)[C@H]1O)C3 [Reb M, rebaudioside M]
Sensory comments ([6]; 200 ppm in water, Test A): Typical mid-sweet for Reb M, fairly well rounded, quick rise, some tailing, some bitter
Sensory comments ([6]; 400 ppm in water, Test A): Higher sweet, faster onset than 200 ppm, cotton candy sweetness-skews to HFCS longer linger, sharper bitterness—but not oppressing sweetness
Sensory comments ([6]; Reb M alone in water, Test B, concentration not stated at the comment): clean, sweet, spiky sweetness
Sensory comments [7]: Nice subtle sweetness, feels like sugar, but with long linger very good
Perimeter [8]: 58.3
AUC ([8]; area under the curve (total)): 132.9a
Plateau Time ([8]; duration of peak intensity): 4.1a
Tdur ([8]; duration time of sensation): 35.4a
Imax ([8]; peak intensity, 12 panelists, 3 replicates): 5.9
APostMax ([8]; post-peak area under the curve): 90.0a
APreMax ([8]; pre-peak area under the curve): 43.0
Rate Decrease ([8]; slope after peak intensity): −0.2a
Rate Increase ([8]; slope before peak intensity): 0.7
Tonset ([8]; time sensation is first perceived): 0.8
Text ([8]; time to extinction): 36.3a
sweetness characteristics [4]: higher sweetness intensity and is more potent than other steviol glycosides
aqueous solubility in words [5]: poor aqueous solubility and dissolution qualities in beverage formulations
